Results taken from ChEMBL document CHEMBL1201862, “PubChem BioAssay data set” (2004).
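48-hour exposure; five concentrations; linearly interpolated endpoints. Here, GI50 denotes the concentration required for 50% inhibition of growth.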 Activity calls are given as the source filed them. No stated cut-off is given here; in the data, active = GI50 up to about 1.1 µM and inactive = higher.

Key:
Test in all cases: NCI anticancer screen, dose series, 48 h
[1] = system: A549
[2] = system: HOP-92
[3] = system: HT-29
[4] = system: IGROV-1
[5] = system: KM12
[6] = system: M14
[7] = system: MOLT-4
[8] = system: NCI-H23
[9] = system: OVCAR-8
[10] = system: SF-539
[11] = system: SK-MEL-28
[12] = system: SN12C
[13] = system: SNB-19
[14] = system: SNB-75
[15] = system: SR
[16] = system: SW-620
[17] = system: TK-10
[18] = system: NCI/ADR-RES

Measured: GI50

c1ccc2c(c1)[Se]c1ccccc1[Se]2
inactive: [1] 53.6 µM | [2] 25.8 µM | [3] > 100 µM | [4] 47.6 µM | [5] > 100 µM | [6] > 100 µM | [7] 77.6 µM | [8] 63.5 µM | [9] > 100 µM | [10] 44.3 µM | [11] > 100 µM | [12] > 100 µM | [13] > 100 µM | [14] 21.2 µM | [15] 85.3 µM | [16] > 100 µM | [17] 78.5 µM

COc1ccc(OCC(=O)O)c(C(=O)CCC(=O)O)c1
inactive: [1] > 100 µM | [2] > 100 µM | [3] > 100 µM | [4] > 100 µM | [5] > 100 µM | [6] > 10 µM | [7] > 100 µM | [8] > 100 µM | [9] > 100 µM | [10] > 100 µM | [11] > 100 µM | [12] > 100 µM | [13] > 100 µM | [14] 71.8 µM | [15] > 100 µM | [16] > 100 µM | [17] > 100 µM

O=C1NC(=O)C(CCC(=O)c2ccc3ccccc3c2)C(=O)N1
inactive: [1] > 100 µM | [2] > 100 µM | [3] > 100 µM | [4] > 100 µM | [5] > 100 µM | [6] > 100 µM | [7] > 100 µM | [8] > 100 µM | [9] > 100 µM | [10] > 100 µM | [11] > 100 µM | [12] > 100 µM | [13] > 100 µM | [14] > 100 µM | [15] > 100 µM | [16] > 100 µM | [17] > 100 µM

C=CCC1(C(=O)OC(C)(C)C)C(OC)=C(C(=O)OC(C)(C)C)C2C1C(C(=O)OC(C)(C)C)=C(OC)C2(CC=C)C(=O)OC(C)(C)C (stereo unspecified)
inactive: [1] > 100 µM | [2] > 100 µM | [4] > 100 µM | [5] > 100 µM | [6] > 100 µM | [7] > 100 µM | [8] > 100 µM | [9] > 100 µM | [10] > 100 µM | [11] > 100 µM | [12] > 100 µM | [13] > 100 µM | [14] > 100 µM | [15] > 100 µM | [16] > 100 µM | [17] 64.6 µM

NCCCC(N)(C(=O)O)C(F)F (stereo unspecified) [EFLORNITHINE]
inactive: [1] > 5000 µM | [2] > 1890 µM | [3] > 2790 µM | [4] > 5000 µM | [5] > 5000 µM | [6] > 100 µM | [7] 3030 µM | [8] > 5000 µM | [18] > 5000 µM | [10] > 5000 µM | [11] > 5000 µM | [12] > 1980 µM | [13] > 5000 µM | [14] 2340 µM | [15] > 100 µM | [16] > 5000 µM | [17] > 100 µM

COC(=O)C(=O)C(C(=O)OC)C(=O)C(=O)Nc1c(C)cccc1C (stereo unspecified)
inactive: [1] > 100 µM | [2] 41.6 µM | [3] > 100 µM | [4] > 100 µM | [5] > 100 µM | [6] > 100 µM | [7] > 100 µM | [8] > 100 µM | [9] > 100 µM | [10] > 100 µM | [11] > 100 µM | [12] > 100 µM | [13] > 100 µM | [14] > 100 µM | [15] > 100 µM | [16] > 100 µM | [17] > 100 µM
